Assays:
Settings in all cases: relative to thienamycin (=1.0)
E. coli = assay: Agar disc-diffusion assay, relative antibacterial potency; assay type: cell-based
Procedure: (§1) The antibacterial activities of the compounds of this invention illustrated in the examples were determined using the following method.
(§2) Antibacterial activities were determined by the disc-diffusion assay described by Bauer et al., Amer. J. Clin. Pathol., 45, 493 (1966), except that an agar thickness of 0.2 cm was used. Thienamycin or imipenem was used as the internal standard. For maximum reproducibility, the inner, completely clear region of the zone of inhibition was measured. Inhibiting concentration at the edge of the zone was computed for each test compound using equation (3) (rearranged) reported by Humphrey and Lightbown in J. Gen. Microbiol., 7, 129 (1952), which takes into account differing molecular weights and resulting diffusion constants. Ratios of the geometric means of the inhibitory concentrations to that of thienamycin were determined for each test compound.
(§3) Antibacterial potencies were determined using standard agar disc diffusion assays and are reported relative to thienamycin (=1.0). Dehydropeptidase-I (DHP-I) susceptibilities were determined by the method of Kropp et al., Antimicrobial Agents Chemother., 22, 62-70 (1982), and are reported relative to thienamycin (=1.0).

Ps. aeruginosa = assay: as above; assay type: cell-based
Procedure: as §1, §2, §3

Klebsiella = assay: as above; assay type: cell-based
Procedure: as §1, §2, §3

Proteus (Ind. + and -) = assay: as above; assay type: cell-based
Procedure: as §1, §2, §3

Enterococcus = assay: as above; assay type: cell-based
Procedure: as §1, §2, §3

Serratia = assay: as above; assay type: cell-based
Procedure: as §1, §2, §3

Enterobacter = assay: as above; assay type: cell-based
Procedure: as §1, §2, §3

S. aureus = assay: as above; assay type: cell-based
Procedure: as §1, §2, §3

[1] = tested on: Dehydropeptidase-I (DHP-I); assay: Dehydropeptidase-I susceptibility (method of Kropp et al.); assay type: in vitro ADME
Source text: Antibacterial compounds of Formula I are of the broad class known as carbapenems or 1-carbadethiapenems. Certain of these carbapenems are susceptible to attack by a renal enzyme known as dehydropeptidase (DHP). This attack or degradation may reduce the efficacy of the carbapenem antibacterial agent. Inhibitors of DHP and their use with carbapenem antibacterial agents are disclosed in the prior art. See European Patent Applications No. 79102616.4 filed July 24, 1979 (Publication No. 0 010 573); 79102615.6, filed July 24, 1979 (Publication No. 0 007 614); and 82107174.3, filed August 9, 1982 (Publication No. 0 072 014).
as §3

SMILES	Relative Antibacterial Potencies (E. coli)	Relative Antibacterial Potencies (Ps. aeruginosa)	Relative Antibacterial Potencies (Klebsiella)	Relative Antibacterial Potencies (Proteus (Ind. + and -))	Relative Antibacterial Potencies (Enterococcus)	Relative Antibacterial Potencies (Serratia)	Relative Antibacterial Potencies (Enterobacter)	Relative Antibacterial Potencies (S. aureus)	DHP-I susceptibility [1]
C[C@@H](O)[C@H]1C(=O)N2C(C(=O)O)=C(CO)[C@H](C)[C@H]12 [Example 1, Potassium (1S,1′R,5R,6S)-2-hydroxymethyl-6-(1′-hydroxyethyl)-1-methylcarbapen-2-em-3-carboxylate]	2.3	0.2	2.0	3.0	1.0	4.3	3.7	0.4	0.76
CC(=O)OCC1=C(C(=O)O)N2C(=O)[C@H]([C@@H](C)O)[C@H]2[C@H]1C [Example 2, Potassium (1S,1′R,5R,6S)-2-acetoxymethyl-6-(1′-hydroxyethyl)-1-methylcarbapen-2-em-3-carboxylate]	4.0	0.09	2.5	27.9	2.8	12.1	7.0	0.7	0.52
C[C@@H](O)[C@H]1C(=O)N2C(C(=O)O)=C(CN=[N+]=[N-])[C@H](C)[C@H]12 [Example 3, Potassium (1S,1′R,5R,6S)-2-azidomethyl-6-(1′-hydroxyethyl)-1-methylcarbapen-2-em-3-carboxylate]	9.2	0.06	4.3	29.9	2.0	22.6	11.3	1.4	7.29
C[C@@H](O)[C@H]1C(=O)N2C(C(=O)O)=C(COC(N)=O)[C@H](C)[C@H]12 [Example 4, Potassium (1S,1′R,5R,6S)-2-aminocarbonyloxy methyl-6-(1′-hydroxyethyl)-1-methylcarbapen-2-em-3-carboxylate]	6.1	0.4	7.0	14.9	5.7	32	22.6	0.9	0.39
CNC(=O)OCC1=C(C(=O)O)N2C(=O)[C@H]([C@@H](C)O)[C@H]2[C@H]1C [Example 5, Potassium (1S,1′R,5R,6S)-2-methylaminocarbonyl oxymethyl-6-(1′-hydroxyethyl)-1-methylcarbapen-2-em-3-carboxylate]	5.7	0.2	7.0	16	3.7	16	9.8	0.8	0.59
C[C@@H](O)[C@H]1C(=O)N2C(C(=O)O)=C(COC(=O)Nc3ccccc3)[C@H](C)[C@H]12 [Example 6, Potassium (1S,1′R,5R,6S)-2-phenylaminocarbonyloxymethyl-6-(1′-hydroxyethyl)-1-methylcarbapen-2-em-3-carboxylate]	0.6	0.03	0.2	4.9	2.8	0.3	0.2	1.2	1.35
C[C@@H](O)[C@H]1C(=O)N2C(C(=O)O)=C(COC(=O)N(C)C)[C@H](C)[C@H]12 [Example 7, Potassium (1S,1′R,5R,6S)-2-dimethylamino carbonyloxymethyl-6-(1′-hydroxyethyl)-1-methylcarbapen-2-em-3-carboxylate]	0.6	0.04	0.4	11.3	1.2	1.4	0.8	1.4	0.29
C[C@@H](O)[C@H]1C(=O)N2C(C(=O)[O-])=C(COC(=O)NCC[n+]3ccccc3)[C@H](C)[C@H]12 [Example 8, (1S,1′R,5R,6S)-6-(1′-hydroxyethyl)-1-methyl-2-(2˝-pyridiniumethylaminocarbonyloxymethyl)carbapen-2-em-3-carboxylic acid]	0.93	0.33	1.1	2.5	2.3	2.1	2.1	0.87	0.05
C[C@@H](O)[C@H]1C(=O)N2C(C(=O)O)=C(CN)[C@H](C)[C@H]12 [Example 9, (1S,1′R,5R,6S)-2-aminomethyl-6-(1′-hydroxyethyl)-1-methylcarbapen-2-em-3-carboxylic acid]	0.2	0.4	0.2	0.2	0.3	0.2	0.3	0.6	0.06
